How the values were obtained:
[1] = molecular target: T1, MAPKAPK2 Recombinant Human Protein (Homo sapiens, UniProt P49137); assay: MK2 kinase assay (Z'-LYTE kinase assay kit); details: inhibition of MK2 biochemical activity; 90 min incubation at room temperature
T1 construct: purchased ThermoFisher pv3317
How it was run: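 Z'-LYTE FRET assay with recombinant human MAPKAPK2 and peptide substrate; compound and ATP added, kinase reaction 90 min at room temperature, then development 60 min before stop. Coumarin (445 nm) and fluorescein (520 nm) emissions read at 400 nm excitation.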

[2] = system: THP-1 cells; assay: THP-1 cell assay: LPS-stimulated pSer78-Hsp27 ELISA; assay type: cell-based; details: Homo sapiens, PMA-differentiated THP-1 cells, compound 60 min before 20 ng/mL LPS for 30 min
Text: Materials and Reagents for Measuring Activity in THP-1 Cells: • 1) THP-1 cells (Cell bank of Shanghai) • 2) PMA (Sigma, Cat.No. P1585) • 3) LPS (Sigma, Cat.No. L4516) • 4) 96-well tissue-culture treated plate (Grenier, Cat.No. 655180) • 5) FBS (Thermofisher, Cat.No. 10100147) • 6) Complete EDTA-free protease inhibitor Cocktail (Roche, Cat.No. 4693132001) • 7) PhosSTOP (Roche, Cat.No. 4906845001) • 8) Phosphor-Hsp27 (Ser78) Sandwich Elisa kit (CST, Cat.No. 7295)
Cell Assay Procedure: • 1) Day 0: THP-1 cells are seeded at 50K/well in complete media (1640+10% FBS+50 μM β-ME)+20 ng/mL PMA in 96-well plate • 2) Day 1: PMA containing media is removed after 24 h incubation (37° C./5% CO2), and replaced with complete growth media. Cells are incubated an additional 48 h to recover. • 3) Day 3: Cells are incubated with or without compounds at indicated concentrations for 60 min, prior to addition of 20 ng/mL LPS. Cells are stimulated for 30 min with LPS, washed 1× with ice cold PBS, lysed on ice in Lysis buffer provided in ELISA kit with Roche protease & phosphatase inhibitors. Extracts are clarified by refrigerated centrifugation & stored at −80° C. until pHsp27/total Hsp27 ELISAs • 4) Day 3 or Day 4: Cell Signaling Technology ELISA is run for pSer78-Hsp27 on lysates diluted to approximately 2.5 μg/well. • 5) The absorbance at 450 nm was read in a SpectraMax plus plate reader (Molecular Devices). Data was processed using GraphPad prism 8.0.

T1 sequence (P49137 whole entry): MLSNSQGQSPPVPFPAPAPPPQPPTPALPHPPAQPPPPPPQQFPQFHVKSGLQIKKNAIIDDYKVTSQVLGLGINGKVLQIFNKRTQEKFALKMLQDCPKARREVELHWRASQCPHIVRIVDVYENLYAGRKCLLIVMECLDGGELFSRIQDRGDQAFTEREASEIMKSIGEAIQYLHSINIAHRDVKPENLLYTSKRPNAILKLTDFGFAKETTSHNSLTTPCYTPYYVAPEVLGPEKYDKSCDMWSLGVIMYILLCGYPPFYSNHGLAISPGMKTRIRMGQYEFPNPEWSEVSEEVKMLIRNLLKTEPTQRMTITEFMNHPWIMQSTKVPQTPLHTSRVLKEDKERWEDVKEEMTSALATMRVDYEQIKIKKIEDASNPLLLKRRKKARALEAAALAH

IC50 [1] [nM] | IC50 [2] [nM] | SMILES
50 to 100 | 200 to 300 | CN(C)C[C@H]1C[C@@]12CCN(c1ccc3c(c1)Cn1cc(-c4ccc(C#N)cc4)cc1-c1nccn1-3)C2=O [Example 48, 4-(7-((1S,3R)-1-((dimethylamino)methyl)-4-oxo-5-azaspiro[2.4]heptan-5-yl)-9H-benzo[e]imidazo[2,1-c]pyrrolo[1,2-a][1,4]diazepin-12-yl)benzonitrile]
< 50 | < 50 | CN(C)C(C)(C)[C@H]1CC(=O)N(c2ccc3c(c2)Cn2cc(-c4ccc(C#N)cc4)cc2-c2nccn2-3)C1 [Example 54]
< 50 | < 50 | CC(C)(C1CC(=O)N(c2ccc3c(c2)Cn2cc(-c4ccc(C#N)cc4)cc2-c2nccn2-3)C1)N1CCC1 (stereo not shown) [Example 55, 4-(7-(4-(2-(Azetidin-1-yl)propan-2-yl)-2-oxopyrrolidin-1-yl)-9H-benzo[e]imidazo[2,1-c]pyrrolo[1,2-a][1,4]diazepin-12-yl)benzonitrile]
50 to 100 | 200 to 300 | CN(C)C[C@@H]1CN(c2ccc3c(c2)Cn2cc(-c4ccc(C#N)cc4)cc2-c2nccn2-3)C(=O)N1C [Example 56, (R)-4-(7-(4-((Dimethylamino)methyl)-3-methyl-2-oxoimidazolidin-1-yl)-9H-benzo[e]imidazo[2,1-c]pyrrolo[1,2-a][1,4]diazepin-12-yl)benzonitrile]
< 50 | < 50 | CN(C)CCN1CCN(c2ccc3c(c2)Cn2cc(-c4ccc(C#N)cc4)cc2-c2nccn2-3)C1=O [Example 57, 4-(7-(3-(2-(Dimethylamino)ethyl)-2-oxoimidazolidin-1-yl)-9H-benzo[e]imidazo[2,1-c]pyrrolo[1,2-a][1,4]diazepin-12-yl)benzonitrile]
< 50 | 50 to 100 | CN(C)[C@H]1C[C@@H](N2CCN(c3ccc4c(c3)Cn3cc(-c5ccc(C#N)cc5)cc3-c3nccn3-4)C2=O)C1 [Example 59]
< 50 | < 50 | CN1CC(C)(CN2C(=O)CN(c3ccc4c(c3)Cn3cc(-c5ccc(C#N)cc5)cc3-c3nccn3-4)C2=O)C1 [Example 65, 4-(7-(3-((1,3-Dimethylazetidin-3-yl)methyl)-2,4-dioxoimidazolidin-1-yl)-9H-benzo[e]imidazo[2,1-c]pyrrolo[1,2-a][1,4]diazepin-12-yl)benzonitrile]
< 50 | > 1000 | N#Cc1ccc(-c2cc3n(c2)Cc2cc(N4CC(=O)N(CC5CNC5)C4=O)ccc2-n2ccnc2-3)cc1 [Example 66]
< 50 | < 50 | CC(C)(N)CN1C(=O)CN(c2ccc3c(c2)Cn2cc(-c4ccc(C#N)cc4)cc2-c2nccn2-3)C1=O [Example 68]
< 50 | 500 to 1000 | CN(C)CCn1ccn(-c2ccc3c(c2)Cn2cc(-c4ccc(C#N)cc4)cc2-c2nccn2-3)c1=O [Example 70, 4-(7-(3-(2-(Dimethylamino)ethyl)-2-oxo-2,3-dihydro-1H-imidazol-1-yl)-9H-benzo[e]imidazo[2,1-c]pyrrolo[1,2-a][1,4]diazepin-12-yl)benzonitrile]
< 50 | 50 to 100 | CN(C)[C@@H]1CCN(C(=O)Nc2ccc3c(c2)Cn2cc(-c4ccc(C#N)cc4)cc2-c2nccn2-3)C1 [Example 74]
50 to 100 | 100 to 200 | CC(C)N1CCC(C(=O)Nc2ccc3c(c2)Cn2cc(-c4ccc(C#N)cc4)cc2-c2nccn2-3)C1 (stereo not shown) [Example 77, N-(12-(4-Cyanophenyl)-9H-benzo[e]imidazo[2,1-c]pyrrolo[1,2-a][1,4]diazepin-7-yl)-1-isopropylpyrrolidine-3-carboxamide]
50 to 100 | 100 to 200 | CN(C)CCn1cnn(-c2ccc3c(c2)Cn2cc(-c4ccc(C#N)cc4)cc2-c2nccn2-3)c1=O [Example 79, 4-(7-(4-(2-(Dimethylamino)ethyl)-5-oxo-4,5-dihydro-1H-1,2,4-triazol-1-yl)-9H-benzo[e]imidazo[2,1-c]pyrrolo[1,2-a][1,4]diazepin-12-yl)benzonitrile]
< 50 | 50 to 100 | CN(CCO)C[C@H]1CCN(c2ccc3c(c2)Cn2cc(-c4ccc(F)cc4)cc2-c2nccn2-3)C1=O [Example 90, (R)-1-(12-(4-Fluorophenyl)-9H-benzo[e]imidazo[2,1-c]pyrrolo[1,2-a][1,4]diazepin-7-yl)-3-(((2-hydroxyethyl)(methyl)amino)methyl)pyrrolidin-2-one]

The next lines start with the compound.

SMILES | IC50 [1] [nM] | IC50 [2] [nM]
N#Cc1ccc(-c2cc3n(c2)Cc2cc(N4C[C@@H](C5(N)CC5)CC4=O)ccc2-n2ccnc2-3)cc1 [Example 50] | < 50 | 50 to 100
CC(C)(N)[C@@H]1CC(=O)N(c2ccc3c(c2)Cn2cc(-c4ccc(C#N)cc4)cc2-c2nccn2-3)C1 [Example 53] | < 50 | 300 to 400
CN1CC(N2CCN(c3ccc4c(c3)Cn3cc(-c5ccc(C#N)cc5)cc3-c3nccn3-4)C2=O)C1 [Example 58, 4-(7-(3-(1-Methylazetidin-3-yl)-2-oxoimidazolidin-1-yl)-9H-benzo[e]imidazo[2,1-c]pyrrolo[1,2-a][1,4]diazepin-12-yl)benzonitrile] | < 50 | < 50
C[C@H]1[C@@H](CN(C)C)OC(=O)N1c1ccc2c(c1)Cn1cc(-c3ccc(C#N)cc3)cc1-c1nccn1-2 [Example 61, 4-(7-((4S,5R)-5-((Dimethylamino)methyl)-4-methyl-2-oxooxazolidin-3-yl)-9H-benzo[e]imidazo[2,1-c]pyrrolo[1,2-a][1,4]diazepin-12-yl)benzonitrile] | 50 to 100 | 300 to 400
CN1CC(CN2C(=O)CN(c3ccc4c(c3)Cn3cc(-c5ccc(C#N)cc5)cc3-c3nccn3-4)C2=O)C1 [Example 67] | < 50 | > 1000
CN1CC(N2C(=O)CN(c3ccc4c(c3)Cn3cc(-c5ccc(C#N)cc5)cc3-c3nccn3-4)C2=O)C1 [Example 69] | < 50 | < 50
CN1CC(n2ccn(-c3ccc4c(c3)Cn3cc(-c5ccc(C#N)cc5)cc3-c3nccn3-4)c2=O)C1 [Example 71, 4-(7-(3-(1-Methylazetidin-3-yl)-2-oxo-2,3-dihydro-1H-imidazol-1-yl)-9H-benzo[e]imidazo[2,1-c]pyrrolo[1,2-a][1,4]diazepin-12-yl)benzonitrile] | 50 to 100 | 200 to 300
CN(C)C1CCN(C(=O)Nc2ccc3c(c2)Cn2cc(-c4ccc(C#N)cc4)cc2-c2nccn2-3)C1 (stereo not shown) [Example 72] | < 50 | < 50
CN(C)[C@H]1CCN(C(=O)Nc2ccc3c(c2)Cn2cc(-c4ccc(C#N)cc4)cc2-c2nccn2-3)C1 [Example 73] | < 50 | < 50
CN(C)CCN1C(=O)CN(c2ccc3c(c2)Cn2cc(-c4ccc(C#N)cc4)cc2-c2nccn2-3)C1=O [Example 75, 4-(7-(3-(2-(Dimethylamino)ethyl)-2,4-dioxoimidazolidin-1-yl)-9H-benzo[e]imidazo[2,1-c]pyrrolo[1,2-a][1,4]diazepin-12-yl)benzonitrile] | < 50 | < 50
N#Cc1ccc(-c2cc3n(c2)Cc2cc(NC(=O)C4CCNC4)ccc2-n2ccnc2-3)cc1 (stereo not shown) [Example 76, N-(12-(4-Cyanophenyl)-9H-benzo[e]imidazo[2,1-c]pyrrolo[1,2-a][1,4]diazepin-7-yl)pyrrolidine-3-carboxamide] | < 50 | 1000 to 1500
Cc1nnc2n1-c1ccc(N3C[C@@H](CN4CCC4)CC3=O)cc1Cn1cc(-c3ccc(C#N)cc3)cc1-2 [Example 82] | 50 to 100 | 300 to 400
[2H]C([2H])([2H])N(CC1CCN(c2ccc3c(c2)Cn2cc(-c4ccc(C#N)cc4)cc2-c2nnc(C)n2-3)C1=O)C([2H])([2H])[2H] (stereo not shown) [Example 86, 4-(7-(3-((Bis(methyl-d3)amino)methyl)-2-oxopyrrolidin-1-yl)-3-methyl-9H-benzo [e]pyrrolo[1,2-a][1,2,4]triazolo[3,4-c][1,4]diazepin-12-yl)benzonitrile] | < 50 | 300 to 400
CN(C)C[C@H]1CC(=O)N(c2ccc3c(c2)Cn2cc(-c4ccc(C#N)cc4)cc2-c2ncnn2-3)C1 [Example 87, (R)-4-(7-(4-((Dimethylamino)methyl)-2-oxopyrrolidin-1-yl)-9H-benzo[e]pyrrolo [1,2-a][1,2,4]triazolo[5,1-c][1,4]diazepin-12-yl)benzonitrile] | < 50 | 100 to 200
CN(CCO)C[C@H]1CC(=O)N(c2ccc3c(c2)Cn2cc(-c4ccc(F)cc4)cc2-c2nccn2-3)C1 [Example 89, (R)-1-(12-(4-Fluorophenyl)-9H-benzo[e]imidazo[2,1-c]pyrrolo[1,2-a][1,4]diazepin-7-yl)-4-(((2-hydroxyethyl)(methyl)amino)methyl)pyrrolidin-2-one] | 50 to 100 | 50 to 100
